Experimental data: patent US20080220416A1, “Compositions for Inhibiting Cell Growth and Inducing Apoptosis in Cancer Cells and Methods of Use Thereof” (THE BOARD OF TRUSTEES OF THE UNIVERSITY OF ILLINOI, priority 2004, published 2008)
Square brackets hold non-standard residues; d marks the D form. Peptide text beside a SMILES is read from it. * marks the point of attachment. Nle = CCCC[C@H](N)C(=O)O; Cbz = O=C(OCc1ccccc1)*

Legend:
[1] = system: MDA-MB231 breast cancer cells; assay: Extracellular matrix invasion of MDA-MB231 cells (Matrigel Invasion Chambers); assay type: cell-based, human; conditions: siRNA transfection, 22 hours
Description: Cytotoxicity and growth of transfected cells were estimated by a standard assay used for cancer drug screening, through the total amount of TCA-precipitated cell proteins after drug treatment (Likhitwitayawuid, K et al., 1993, J Nat Prod 56:30-38): 200 μl of cell suspension (10^5 cells/ml) were added to each well in a 96-well plate. After incubation at, 37° C., in 5% CO2 (30 minutes to 72 hours depending on the time course chosen), 50 μl 50% trichloroacetic acid was added to each well. After incubation at 4° C. for 1 hour, precipitates were washed with water 4-5 times and air dried overnight. One hundred μl of SRB solution (0.4% sulforhodamine B in 1% acetic acid, filtered before use) was added to each well for 30 minutes. Wells were washed with 1% acetic acid 4-5 times and air dried. Two hundred μl 10 mM Tris base was added to each well. Plates were shaken for 5-10 minutes and OD at 490 nm (OD490) was recorded via ELISA reader. To assay matrix invasion, 300 μl of cell suspension (10^6 cells/mL in serum-free medium) were added to invasion inserts (BioCoat Matrigel Invasion Chambers, Becton Dickinson, Bedford, Mass.) and incubated for 22 hours at 37° C., 5% CO2. Cells were stained with 0.9% crystal violet in 10% ethanol for 20 minutes. Inserts were dipped in water several times and air dried. After removal of the non-invading cells from the interior of the inserts, stained invading cells were lysed in 10% acetic acid and OD595 was determined.
Notch silencing was confirmed by Western blot as described above in Example 15 using commercial goat polyclonal antibodies from Santa Cruz Biotechnology to Notch-1 (C-20, Cat# sc-6014 S). For the Western blot analyses, MDA-MB231 cells were treated with 25 μM IL-X for 48 h or with 0.5, 1 or 2 μM z-Leu-Leu-Nle-CHO for 24 h. Cytotoxicity and matrix invasion assays were performed as described above in Example 15. For the cytotoxicity assays, MDA-MB231 cells were treated with […] IL-X for up to 3 days or with 0-20 μM z-Leu-Leu-Nle-CHO for up to 4 days. […]

NOXA = NOXA in whole cell protein extracts of subcutaneous C8161 tumors; assay type: in vivo, Nude mice; conditions: 2.5 mg/kg; versus PBS
Description: Initially, 1×10^6 aggressive melanoma cells (C8161) (ATCC, Rockville, Md.) were injected subcutaneously in Nude (nulnu) mice (6-7 weeks old; Harlan, Indianapolis, Ind.) on day 0, and the tumors were allowed bearing groups (5 mice/group) and injected with either (a) PBS as control; (b) bortezomib at 1.25 mg/kg; or (c) bortezomib at 2.5 mg/kg. Treatment began on day 8 when tumors were palpable and injected four times peri-tumorally. On day 20, mice were euthanized and tumors dissected from surrounding tissue and weighted. […] Expanding the in vitro studies to in vivo studies, subcutaneous tumors produced in Nude mice (as described above in Example 7) were tested to detect NOXA using whole cell protein extracts as described above.

C8161 melanoma tumors = assay: C8161 melanoma xenograft in Nude mice, peri-tumoral bortezomib
PC-3 prostate cells = assay: z-Leu-Leu-Nle-CHO on NOXA and apoptosis in PC-3 prostate cells; assay type: cell-based; conditions: 10 μM
normal human melanocytes = assay: Apoptosis and cell cycle of normal human melanocytes treated with z-Leu-Leu-Nle-CHO; assay type: cell-based
Description: The effect of z-Leu-Leu-Nle-CHO on apoptosis was tested in vitro using normal human melanocytes and several melanoma cell cultures. Prior to testing, cutaneous (C8161, SK-MeI-28, SK-MeI-100, SK-MeI-5, C81-61), uveal or ocular (MUM2B, MUM2C, OCM-1A), and pulmonary metastases (RJ002L) melanoma cell lines were maintained in RPMI supplemented with 10% FBS. Normal human melanocytes were isolated from neonatal foreskins as previously described (Qin J et al., 2004, Mol Cancer Ther 3:895-902) and cultured with medium 154 containing growth supplements (Cascade Biologics, Portland, Oreg.).
To assess the effect of z-Leu-Leu-Nle-CHO on the cell lines, the cells were grown in suitable culture media. Highly proliferating cells (i.e., cells that had reached approximately 30% confluency) were exposed to z-Leu-Leu-Nle-CHO as described below. […]
Following treatment with z-Leu-Leu-Nle-CHO, the melanoma and melanocyte cell cultures were assayed for apoptotic cells using the APO TARGET Annexin V FITC staining kit (Biosource, Camarillo, Calif.) according to the manufacturer's instructions followed by flow cytometric analysis using FACScaliber (Becton Dickinson, Palo Alto, Calif.) as described in Qin, J. et al., 2001, Nat Med 7:385-386. In some cases, cell cycle and apoptosis analysis was measured using propidium iodide staining and flow cytometry as described. […]

“5′-AAGTGTCTGAGGCCAGCAAGA-3′ [Notch-1 siRNA]” was tested. Which extracellular matrix invasion [1] did it give?
Its extracellular matrix invasion is “significantly inhibited extracellular matrix invasion”.

What does the source list for CC(C)C[C@H](NC(=O)[C@H](Cc1ccccc1)NC(=O)c1cnccn1)B(O)O [bortezomib, N-(2-pyrazine)carbonyl-L-phenylalanine-L-leucine boronic acid]?
NOXA in treated tumors (NOXA): did induce NOXA in these treated tumors; tumor growth (C8161 melanoma tumors; 1.25 mg/kg or 2.5 mg/kg, four peri-tumoral injections, compared to PBS): regression of melanoma tumors occurred; tumor weight (C8161 melanoma tumors; 1.25 mg/kg versus PBS, day 20): significant (p<0.01) reduction in tumor weight; histological appearance of tumor (H&E) (C8161 melanoma tumors; 2.5 mg/kg): scattered apoptotic C8161 cells are present; tumor weight (C8161 melanoma tumors; 2.5 mg/kg dose compared with 1.25 mg/kg): no further reduction was apparent

With CCCC[C@@H](C=O)NC(=O)[C@H](CC(C)C)NC(=O)[C@H](CC(C)C)NC(=O)OCc1ccccc1 [z-Leu-Leu-Nle-CHO, N-benzyloxycarbonyl-leucyl-leucyl-norleucinal] (Cbz-Leu-Leu-[Nle]-aldehyde) as the compound, how does the NOXA expression (PC-3 prostate cells; PC-3, p53 null) read?
The NOXA expression was “induced expression of NOXA”.

And the dead cells (PC-3 prostate cells; PC-3, after 24 hrs, data not shown)?
Its dead cells is over 50%.

And the cell cycle effect (normal human melanocytes; 10 μM for 24 h)?
The cell cycle effect was “induce a G2/M growth arrest”.

And the induction of apoptosis (normal human melanocytes; MC004, MC007, 1-10 μM for 18 h)?
Its induction of apoptosis is “did not significantly induce apoptosis”.
